Laboratory results reported in US9926585B2, “Method for producing a minor ginsenoside using a ginsenoside glycosidase” (INTELLIGENT SYNTHETIC BIOLOGY CENTER, priority 2015, dated 2018).
Entries after “also recorded” stand apart in the source; their conditions may differ. Where two headings read alike, the source gives them in different places.

Assays:
[1] = system: ginsenoside glycosidase MT619; assay: Effects of metals and chemical reagents on MT619 activity (residual activity, pNPG substrate); assay type: biochemical, Microbacterium testaceum
[2] = system: ginsenoside glycosidase MT619; assay: Ginsenoside conversion ability of MT619 (TLC); assay type: biochemical, Microbacterium testaceum; conditions: 2.0 mg/ml MT619, 2.0 mg/ml substrate, 37° C., 1.5 hr
Description: In order to analyze the specificity and selectivity of the enzyme for the hydrolysis of a sugar attached at the C-6 position of ginsenoside, ginsenoside Re, Rg1 and Rg2 were used as the substrates.
2.0 mg/ml of MT619 in 50 mM sodium phosphate buffer (pH 7.0) was reacted with each 2.0 mg/ml of the three substrates in 50 mM sodium phosphate (pH 6.0) at an equal volume at 37° C. In order to measure cleavage activity of MT619, the samples were collected at 1.5 hr after reaction, and an equal volume of water-saturated butanol was added to stop the reaction. The n-butanol fraction was evaporated to dryness, and residual material was dissolved in CH3OH and then examined by thin layer chromatography (TLC), and the results are given in FIG. 4.

[3] = system: ginsenoside glycosidase MT619; assay: Substrate specificity of MT619 with chromogenic ONP and PNP substrates; assay type: biochemical, Microbacterium testaceum; conditions: for substrate specificity of MT619: 2.0 mM substrate, 37° C.; for Relative activity (%) MT619: final substrate concentration 2.0 mM, 37° C. for 5 minutes, relative to enzymatic activity for pNP-β-D-glucopyranoside
Description: In order to analyze substrate specificity of […], 2.0 mM chromogenic O-nitrophenyl (ONP) and p-nitrophenyl (PNP) were used as substrates, and measured at 37° C. for 5 minutes. 1 activity unit was defined as the release of 1 μmol of o-nitrophenol or p-nitrophenol per minute. Substrates used for analysis were pNP-α-L-arabinofuranoside, pNP-β-L-arabinopyranoside, pNP-α-L-D-fucopyranoside, pNP-α-L-rhamnopyranoside, pNP-α-D-glucopyranoside, pNP-α-D-mannopyranoside, pNP-β-D-galactopyranoside, oNP-β-D-glucopyranoside, oNP-β-D-fucopyranoside, pNP-β-D-xylopyranoside, pNP-β-L-arabinofuranoside, oNP-β-D-fucopyranoside, oNP-α-D-galactopyranoside, and pNP-β-D-glucopyranoside, which were purchased from Sigma.

[4] = assay type: biochemical; conditions: 2.0 mM pNPGlc, 50 mM potassium phosphate buffer, 10 minutes, 4 to 65° C.
Description: In order to measure the effect of temperature on the enzymatic activity of MT619, 2.0 mM pNPGlc (p-nitrophenyl-3-Dglucopyranoside; Sigma) was used to analyze the temperature-dependent activity in the 50 mM potassium phosphate buffer at the optimum pH for 10 minutes while varying the temperature between 4 to 65° C.
Further, in order to measure the effect of temperature on the enzymatic stability of MT619, the equivalent amount of enzyme was incubated in 50 mM potassium phosphate buffer within the same temperature range for 30 minutes. In detail, the sample was cooled in ice for 10 minutes, and temperature stability analysis was performed by measuring the residual activity according to a standard analytical procedure, and the results are given in FIG. 3.

[5] = Effect of pH on enzymatic activity and stability of MT619; assay type: biochemical
Description: In order to measure the effect of pH on the enzymatic activity of MT619, 2.0 mM pNPGlc (p-nitrophenyl-D-glucopyranoside; Sigma) was used as a substrate, and pH was adjusted using the following buffer (50 mM). pH range of 2 to 10: KCl—HCl (pH 2), glycine-HCl (pH 3), sodium acetate (pH 4 and pH 5), sodium phosphate (pH 6 and pH 7), Tris-HCl (pH 8 and pH 9) and glycine-sodium hydroxide (pH 10).
Further, the effect of pH on the enzymatic stability was measured. Enzyme was incubated in each of the above mentioned buffers at 4° C. for 24 hours, and then pNPGlc was analyzed in 50 mM potassium buffer to measure the enzymatic stability according to pH change. Residual activity was analyzed according to a standard analytical procedure, and the results are given in FIG. 2 as an activity percentage obtained at the optimum pH.

[6] = F1 production ability from ginsenoside Rg1, MT619 compared with BgpA; assay type: biochemical
Text: In order to evaluate production ability of MT619 to produce F1 by using Rg1 as a substrate, its F1 production ability was compared with that of ginsenoside glucosidase derived from […].
BgpA derived from Terrabacter ginsenosidimutans, which is known to produce F1 by using ginsenoside Rg1 as a substrate, was used as a comparative control group.

[7] = 10 mM reagent, 37° C. for 30 minutes, pNPG substrate, residual activity as percentage of activity without the compounds

## [Cl-].[Na+] [Nacl, NaCl]
[1]; [7]
  Relative activity (%): 128.1 ± 3.7%
[1]; 10 mM, 37° C., 30 minutes, listed as Na^+
  effect of ions on enzymatic activity of MT619: did not greatly increase; also recorded: not greatly increased

## [Cl-].[Cl-].[Zn+2] [ZnCl2]
[1]; 10 mM, 37° C., 30 minutes
  effect of ions on enzymatic activity of MT619: strongly inhibited

## CC(C)=CCC[C@](C)(O[C@@H]1O[C@H](CO)[C@@H](O)[C@H](O)[C@H]1O)[C@H]1CC[C@]2(C)[C@@H]1[C@H](O)C[C@@H]1[C@@]3(C)CC[C@H](O)C(C)(C)[C@@H]3[C@@H](O[C@@H]3O[C@H](CO)[C@@H](O)[C@H](O)[C@H]3O)C[C@]12C [Rg1, ginsenoside Rg1]
[2]
  conversion of ginsenoside by MT619 (TLC, words): conversion of ginsenoside Rg1 into F1 was confirmed; also recorded: converted into ginsenoside F1

## [Cl][Hg][Cl] [HgCl2]
[1]; 10 mM, 37° C., 30 minutes
  effect of ions on enzymatic activity of MT619: strongly inhibited

## OCCS [Beta-Mercaptoethanol]
[1]; [7]
  Relative activity (%): 94 ± 2%

## [Cl-].[K+] [KCl]
[1]; [7]
  Relative activity (%): 95.3 ± 1.1%
[1]; 10 mM, 37° C., 30 minutes, listed as K^+
  effect of ions on enzymatic activity of MT619: did not greatly increase; also recorded: not greatly increased

## [Cl-].[Cl-].[Co+2] [CoCl2]
[1]
  Relative activity (%): 17.9 ± 0.5%
  effect of ions on enzymatic activity of MT619: strongly inhibited

## [Cl][Cu][Cl] [CuCl2]
[1]; 10 mM, 37° C., 30 minutes
  effect of ions on enzymatic activity of MT619: strongly inhibited

## O=C(O)CN(CCN(CC(=O)O)CC(=O)O)CC(=O)O [EDTA]
[1]
  Relative activity (%): 80.9 ± 2.3%

## CC(C)=CCC[C@](C)(O[C@@H]1O[C@H](CO)[C@@H](O)[C@H](O)[C@H]1O)[C@H]1CC[C@]2(C)[C@@H]1[C@H](O)C[C@@H]1[C@@]3(C)CC[C@H](O)C(C)(C)[C@@H]3[C@@H](O[C@@H]3O[C@H](CO)[C@@H](O)[C@H](O)[C@H]3O[C@@H]3O[C@@H](C)[C@H](O)[C@@H](O)[C@H]3O)C[C@]12C [Re, ginsenoside Re]
[2]
  conversion of ginsenoside by MT619 (TLC, words): converted into ginsenoside F1

## O[C@H](CS)[C@H](O)CS (racemic) [DTT, dithiothreitol]
[1]; [7]
  Relative activity (%): 79.6 ± 1.6%

## O=[N+]([O-])c1ccccc1O[C@@H]1O[C@H](CO)[C@@H](O)[C@H](O)[C@H]1O [oNP-β-glucopyranoside, oNP-β-D-glucopyranoside]
[3]
  substrate specificity of MT619: showed substrate specificity
  Relative activity (%) MT619: 28.7 ± 2.1%

## [Cl][Mn][Cl] [MnCl2]
[1]; [7]
  Relative activity (%): 59.9 ± 2.6%

## CCCCCCCCCCCCOS(=O)(=O)[O-].[Na+] [SDS]
[1]; [7]
  Relative activity (%): 80.6 ± 6.1%

## O=[N+]([O-])c1ccc(O[C@@H]2O[C@H](CO)[C@@H](O)[C@H](O)[C@H]2O)cc1 [pNP-β-D-glucopyranoside, p-nitrophenyl-β-D-glucopyranoside]
[3]
  substrate specificity of MT619: highest substrate specificity
  Relative activity (%) MT619: 100 ± 1.2%

## [Cl-].[Cl-].[Mg+2] [MgCl2]
[1]; [7]
  Relative activity (%): 112.7 ± 4.1%

## [Ca+2].[Cl-].[Cl-] [CaCl2]
[1]; [7]
  Relative activity (%): 132.8 ± 2.4%
[1]; 10 mM, 37° C., 30 minutes, listed as Ca^2+
  effect of ions on enzymatic activity of MT619: did not greatly increase; also recorded: not greatly increased

B1: MT619: ginsenoside glycosidase of SEQ ID NO: 1 screened from Microbacterium testaceum, 619 amino acids (protein, listed as Microbacterium testaceum)
chain: MTHARFLTAPDGTRFRDLNGNGVMDPYENPALSVEERTDDLVSRLSLEEKVGLMFQTVIEVGDEGELLEAPGKISKSPTTTVVVGKHMNHFNVHAIRTARQAATWNNNLQALAETTPHGIPVTISTDPRHAFVENTGVAFSAGPFSQWPEGLGLAALDDVDTVREFAEVARREYVAVGIRAALHPQIDLATEPRWGRQAQTLGQDAARVTEFTAAYLQGFQGDELGPDSVACTTKHFPGGGPQLDGEDAHFPYGREQVYPGGMFDYHLEPFREAIRCGTAGMMPYYGMPVGLEVDGLPIEEVGFGYNRQIITGLLREQLGYDGVVVTDWELVNDNHVGDQVLPARAWGVEHLSAVERMEKILDAGSDQFGGEECVEMLVDLVRAGRVSEERIDESVRRLLRVKFQLGLFDDPYVDVDEAERIVGNAEFRALGERAQAHSLTVLVNEGDVLPLRPAGAVYIEGFRPDDVAELGRVVTDPAEADLAIVRIGAPFDPRDDLFLEAWFHQGSLEFAPGLVYRLQQIAASCPLILVVNLDRPAILTPFVGHAAAIVADYGSSSAAVLDALTGRVPPRGRLPIEIPRSMDAVRSSREDVPSDTGDPVFPVHHGVELKVSTGAQRG
[4]
  temperature of highest activity (optimum temperature): 45 °C
[5]; pH 2 to 10 buffers 50 mM, stability after 4° C. for 24 hours
  pH of highest activity and stability: 7.0
[5]; summary statement of Example 3-2
  pH of highest stability: 7.0
[6]; enzyme 0.1 mg/ml, Rg1 substrate
  time of highest F1 production ability after initiation of the reaction: 2 h
[6]; enzyme concentration 0.1 mg/ml, Rg1 (2.0 mg/ml) as substrate
  F1 produced: 1.3 mg
[6]; enzyme concentration 0.1 mg/ml, Rg1 as substrate
  production of F1 relative to BgpA: 7 times
